From paper PMC4917657, “SP6616 as a new Kv2.1 channel inhibitor efficiently promotes β-cell survival involving both PKC/Erk1/2 and CaM/PI3K/Akt signaling pathways” (Cell Death & Disease, 2016) come the findings set out here.

The test concerns T1, Kv2.2.
T1 construct: gene KCNB2
The experiment in a line: channel inhibition in CHO cells transfected with pcDNA3.1a-Kv2.[…] (Supplementary Figure […]). In kind it is cell-based.

By IC50 is commonly meant the concentration at which inhibition is half-maximal. Turning to `CCOC(=O)C1=C(C)N=c2sc(=Cc3ccc(O)c(OC)c3)c(=O)n2C1c1ccc(OC)c(OCC)c1` (stereo not shown) [SP6616, ethyl 5-(3-ethoxy-4-methoxyphenyl)-2-(4-hydroxy-3-methoxybenzylidene)-7-methyl-3-oxo-2,3-dihydro-5H-[1,3]thiazolo[3,2–a]pyrimidine-6-carboxylate], the IC50 stood at 13.5 µM.
